{"source": "patent US4652584A", "about": "“Acetylenic phenoxypropanol derivatives and pharmaceutical compositions for the treatment of hypertension” (McNeilab, Inc., priority 1984, dated 1987)", "key": {"[1]": {"test_system": "isolated rabbit thoracic aorta", "experiment": "Calcium Entry Blockade test: tension (tone) of vascular rings", "settings": "for inhibition at 10 µM: Oryctolagus cuniculus, 10 μM compound", "excerpt": "(§1) A fourth test for determining the ability of compounds of the invention to act as anti-hypertensive agents is the Calcium Entry Blockade test using vascular smooth muscle. Male New Zealand White Rabbits (H.A.R.E.) (body weight=1.8-2.4 kg) are sacrificed by cervical fracture and the thoracic aorta is removed under standard HEPES buffer. The aorta is rinsed in several changes of standard HEPES and cleared of extraneous tissue. Scissors are used to segment the aorta into 3 mm rings (approximately 12 rings/aorta). For studies of tension, individual rings are equilibrated for one hour in standard HEPES buffer under isometric tension (1 g) between two parallel horizontal wires. For calcium influx studies, the following procedures are executed. After completion of the one-hour equilibration period, the test is begun. To baths containing vascular rings to be tested for the effects of an experimental agent on calcium influx in the basal state (absence of an agonist), the agent dissolved in 20 μl of vehicle (PEG 300 or H2 O) is added and a parallel vehicle bath is started receiving the vehicle alone. To baths containing vascular rings to be tested for the effects of an experimental agent on calcium influx during agonist stimulation, the experimental agent is added in a fashion identical to that described for the basal test and parallel vehicle baths are also initiated. All baths are allowed to equilibrate for 30 minutes. Subsequently, to basal test baths, 20 μl of H2 O is added; to baths receiving KCl, 400 μl of H2 O containing 60 mM KCl is added; to baths receiving NE, 20 μl of H2 O containing 10 μM NE is added. All baths are allowed to equilibrate for an additional 281/2 minutes. At this time, all rings in each bath are removed from their respective bath, quickly but gently blotted and transferred to a bath containing an identical solution but also containing ^45 Ca(20 μl, 2.5 μCi/ml; New England Nuclear, Boston, MA). Rings are allowed exposure to the radiolabelled solution for exactly three minutes. Subsequently, the rings are removed, blotted to remove excess fluid, and placed in predesignated test tubes containing ice cold wash solution where they are allowed to equilibrate for 45 minutes in the presence of vigorous bubbling with 100% O2. Subsequently, individual rings are removed, blotted, weighed (Mettler Balance model AE 163), and placed in a scintillation vial containing 2 ml of 7.5 mM EDTA solution (pH=10.0). Vials are held overnight in darkness. […] Subsequently, 13 ml of Beckman HP scintillation fluid is added to each vial with shaking, vials are cleaned, and counted using a Beckman LS 6800 liquid scintillation counter. Blanks containing solutions alone are simultaneously counted to provide background information.\n(§2) For tension studies, the following procedures are executed. After completion of the one-hour equilibration period, the test is begun. At this time, all tissue tensions are adjusted mechanically back to the 1 gram baseline. Subsequently, all tissue baths receive either KCl (60 mM) plus phentolamine (1 μM) in 400 μl H2 O or NE (10 μM in 20 μl PEG 300). All rings are allowed to develop tension for exactly 30 minutes. Subsequently, the bathing solution is removed and replaced immediately with normal HEPES buffer without experimental agents and the tension response is allowed to \"wash out\". Two subsequent washes are introduced at 10 minute intervals before the rings can achieve the prestimulation baseline tone. Subsequently, the experimental drug or vehicle is added to each bath and the rings are allowed to equilibrate for exactly 30 minutes. Finally, the agonist challenge is repeated as described previously in the presence of the experimental agent. […]"}, "[2]": {"test_system": "Beta Adrenergic", "experiment": "Evaluation of Potential Beta Adrenergic Blocking Activity", "parameters": "species or system guinea pig", "settings": "overall result in words"}, "[3]": {"test_system": "isolated rabbit thoracic aorta (potential-dependent calcium channel)", "experiment": "Calcium Entry Blockade test: 45Ca influx in vascular rings", "settings": "for calcium channel blocking / calcium entry blockade activity: overall result in words", "excerpt": "as §1, §2"}, "[4]": {"test_system": "Isolated Heart (coronary arteries)", "experiment": "Langendorff's Isolated Heart model (coronary vasodilation)", "experimental": "In addition to their utility in the treatment of hypertension, the compounds of formula (I) are useful in the treatment of the symptoms of angina pectoris by virtue of their ability to dilate coronary arteries. Often, peripheral arteries are also dilated by compounds which dilate coronary arteries and thus, this test is also useful for predicting activity as an antihypertensive. Compounds of the invention were tested in this regard in the \"Langendorff's Isolated Heart\" model as generally described in \"Pharmaceutical Experiments on Isolated Preparations\", Staff of the Department of Pharmacology, University of Edinbourgh, 2nd Ed., Churchill, Livingston, N.Y. (1970) pages 112-119. In this test, the compound of the invention of formula (I) produced in Example 6b. required a 0.04 μM concentration to elicit a 30% increase in flow."}, "[5]": {"test_system": "spontaneously hypertensive rats", "experiment": "Spontaneously Hypertensive Rat (SHR) test, mean arterial pressure via aortic cannula", "type": "in vivo", "settings": "30 mg per kg of body weight, p.o.", "excerpt": "The activity of compounds of formula (I) for the treatment of hypertension may be determined using the Spontaneously Hypertensive Rat (SHR) test as described below.\nIn this test, the arterial pressure of adult spontaneously hypertensive rats (Charles River) is monitored directly via an aortic cannula. The SH rats are anesthetized with an inhalation anesthetic (ether). The left carotid artery is isolated and cannulated. The tip of the cannula is advanced to the aorta and the cannula is exteriorized behind the neck at the level of the scapula. Animals are placed in individual cages and allowed to recover from the anesthetic and are kept unrestrained. The arterial cannula is connected to the pressure transducer which is attached to the recorder. The test compounds are administered to at least 3 rats at doses selected in the range of 0.1 to 100 mg/kg of body weight by intraperitoneal (i.p.) or oral (p.o.) routes of administration. The arterial pressure and heart rate are monitored for a minimum of 24 hours. A test compound is considered to be active as an antihypertensive agent if the mean arterial pressure (MAP) indicates a fall of >15 mm of Hg. Each animal serves as its own control."}, "[6]": {"target": "T1, Beta-1 (Cavia porcellus, UniProt H0W3H1)", "T1 construct": "The atria were mounted in 50 ml baths in Krebs-bicarbonate buffer; from tissue; host or cells: guinea pig atria (isolated atrial pairs, female animals)", "T1 sequence (H0W3H1 1-470)": "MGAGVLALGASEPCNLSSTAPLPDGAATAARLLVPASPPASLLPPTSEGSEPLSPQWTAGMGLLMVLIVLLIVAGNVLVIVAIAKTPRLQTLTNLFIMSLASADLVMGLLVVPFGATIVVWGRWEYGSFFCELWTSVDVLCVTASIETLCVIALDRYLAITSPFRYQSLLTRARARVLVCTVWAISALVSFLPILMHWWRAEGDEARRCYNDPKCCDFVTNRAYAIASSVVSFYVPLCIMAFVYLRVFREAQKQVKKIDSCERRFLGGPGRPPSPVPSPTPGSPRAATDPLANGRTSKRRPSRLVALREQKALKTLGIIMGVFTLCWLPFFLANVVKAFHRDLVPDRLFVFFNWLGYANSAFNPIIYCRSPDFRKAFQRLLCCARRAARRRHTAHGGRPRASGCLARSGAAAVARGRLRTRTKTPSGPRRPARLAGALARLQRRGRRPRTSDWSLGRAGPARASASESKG", "settings": "guinea pig atrial pairs, isoproterenol tachycardia, Schild plot; read-out: pA2 (converted)"}, "[7]": {"settings": "KCl stimulated, 1.0 and 10.0 μM"}, "[8]": {"settings": "isolated Langendorff test, 0.01 to 3.0 μM"}}, "note": "Like-named read-outs stand apart in the source and are kept apart here."}
{"smiles": "CC(C)(C)NCC(O)COc1ccccc1C#Cc1ccccc1.Cl", "note": "(stereo not shown) [Example 1d, 1-[(1,1-Dimethylethyl)amino]-3-[2-(phenylethynyl)phenoxy]-2-propanol Hydrochloride]", "values": [{"measurement": "inhibition of KCl stimulated effects on tone", "setting": "[1]; [7]", "result": "dose dependent inhibition"}, {"measurement": "inhibition at 10 µM", "setting": "[1]; KCl stimulated, read-out: inhibition of KCl stimulated tone", "result": 100, "unit": "%"}, {"measurement": "blockade of related vascular tone", "setting": "[1]; isolated rabbit thoracic aorta", "result": "significant blockade"}, {"measurement": "effect on norepinephrine-induced tone / tension", "setting": "[1]", "result": "no effect"}, {"measurement": "β-blocking activity", "setting": "[2]", "result": "β-blocking"}, {"measurement": "inhibition of KCl stimulated calcium influx", "setting": "[3]; KCl stimulated, 10 μM compound", "result": 100, "unit": "%"}, {"measurement": "inhibition of KCl stimulated effects on calcium influx", "setting": "[3]; [7]", "result": "dose dependent inhibition"}, {"measurement": "blockade of the potential-dependent calcium channel", "setting": "[3]; isolated rabbit thoracic aorta", "result": "significant blockade"}, {"measurement": "calcium channel blocking / calcium entry blockade activity", "setting": "[3]; isolated rabbit thoracic aorta", "result": "calcium entry blockade activities"}, {"measurement": "effect on norepinephrine-induced calcium influx", "setting": "[3]", "result": "no effect"}]}
{"smiles": "COc1ccc(C#Cc2ccccc2)c(OCC(O)CNCCc2ccc(OC)c(OC)c2)c1", "note": "(stereo not shown) [Example 6b, 1-[[2-(3,4-Dimethyoxyphenyl)ethyl]amino]-3-[5-methoxy-2-(phenylethynyl)phenoxy]-2-propanol (E)-2-Butenedioate (2:1)]", "values": [{"measurement": "EC30", "setting": "[4]; Langendorff isolated heart, 30% increase in flow, read-out: concentration required to elicit a 30% increase in flow", "result": 40, "unit": "nM"}, {"measurement": "activation at 0.1 µM", "setting": "[4]; at 0.1 μM", "result": 39, "unit": "%"}, {"measurement": "coronary vasodilator activity", "setting": "[4]; [8]", "result": "active coronary vasodilator"}, {"measurement": "effect on contractile force", "setting": "[4]; [8]", "result": "no effect"}, {"measurement": "effect on spontaneous rate", "setting": "[4]; [8]", "result": "no effect"}]}
{"smiles": "CN(C)c1ccc(C#Cc2ccccc2OCC(O)CNC(C)(C)C)cc1.O=C(O)/C=C/C(=O)O", "note": "(stereo not shown) [Example 16, 1-[(1,1-Dimethylethyl)amino]-3-[2-[(4-dimethylaminophenyl)ethynyl]phenoxy]-2-propanol (E)-2-Butenedioate (1:1)]", "values": [{"measurement": "inhibition at 10 µM", "setting": "[1]; KCl-dependent, read-out: reduction of KCl-dependent contractile activity", "result": 50, "unit": "%"}, {"measurement": "effect on norepinephrine-induced tone / tension", "setting": "[1]", "result": "without changing tension"}, {"measurement": "effect on KCl-dependent calcium flux", "setting": "[3]; KCl-dependent, 10 μM compound", "result": "no effect"}, {"measurement": "calcium channel blocking / calcium entry blockade activity", "setting": "[3]; isolated rabbit thoracic aorta", "result": "did not exhibit typical calcium channel blocking activity"}, {"measurement": "effect on norepinephrine-induced calcium influx", "setting": "[3]", "result": "reduced norepinephrine-induced calcium flux"}, {"measurement": "maximum change in mean arterial blood pressure (fall)", "setting": "[5]", "result": "69 mm of Hg"}]}
{"smiles": "CC(=O)Nc1cccc(C#Cc2ccccc2OCC(O)CNC(C)(C)C)c1", "note": "(stereo not shown) [Example 18, N-[3-[[2-[3-[(1,1-Dimethylethyl)amino]-2-hydroxypropoxy]phenyl]ethynyl]phenyl]acetamide 4-methylbenzene sulfonate]", "values": [{"measurement": "Kb", "setting": "[6]", "result": 7.08, "unit": "nM"}]}
